Values joined by “and” are separate entries in the source; they are usually repeats but may differ in a detail not shown here. Equal entries are not always repeated.
How the values were obtained:
[1] = Long-term stability in spiked pooled human plasma
[2] = parameters: method as in supplement references [1-55] as printed per drug; settings: minimum steady-state blood plasma concentration after multiple dose administration; ref supplement references [1-55] per drug; cited from earlier work
[3] = Plasma concentrations in patients on oral antitumor therapy (LC-MS); assay type: in vivo, human
Text: The liquid chromatography-mass spectrometer system consisted of a Thermo Scientific Dionex UltiMate^TM 3000 with an integrated and temperature controlled autosampler (Thermo Fisher Scientific, Dreieich, Germany). An Acquity UPLC® BEH C18 column (2.1 × 100 mm, 1.7 µm; Waters, Milford, CT, USA) equipped with an Acquity UPLC® BEH C18 VanGuard^TM Pre-Column (2.1 × 5 mm, 1.7 µm; Waters, Milford, CT, USA) was used for chromatographic separation. The Q-Exactive^TM Focus mass spectrometer (MS) was hyphenated with a heated electrospray ionization (HESI) source (both from Thermo Fisher Scientific, Dreieich, Germany).
Chromatographic separation was achieved using a gradient elution with water containing 0.5% (v/v) FA (eluent A) and MeOH with 0.1% (v/v) FA (eluent B). The injection volume was 5 µL. The gradient program is shown in Supplement Table S2. The flow rate was 0.5 mL/min with a total run time of 15 min. The column heater was maintained at 50 °C and the autosampler temperature was 4 °C.
The following MS and HESI settings were maintained for all analyses: Sheath gas, auxiliary gas, and sweep gas flow rates were set to 60, 20, and 0, respectively. The spray voltage was 4000 V. Both capillary and auxiliary gas heater temperatures were set to 400 °C. High-purity nitrogen gas was used for the HESI source gases and for the bath gas of the C-trap. […] The HESI source was configured in positive mode for ionization.
The stock solutions were stored in glass vials at −80 °C. Aliquots of all stock solutions were combined in ACN (volumes of individual stock solution solvents are negligible) to obtain a standard solution of all analytes with an individual concentration of 200% of the respective trough level (cmin). Eight individual working standards were prepared by stepwise dilution of this standard solution with concentrations from 10 to 200% cmin (shown in Supplement Table S3). Furthermore, the four individual IS stock solutions were combined and diluted to 50 ng/mL with ACN. Calibration and validation standards were prepared by spiking 50 µL pooled human plasma with 10 µL of the respective working solution. Next, 250 µL IS solution (50 ng/mL in ACN) were added and vortexed vigorously. […] Then, 100 µL supernatant were transferred to 300 µL HPLC insert glass vials and diluted with 100 µL eluent (90% A/10% B). For blank samples, 50 µL pooled human plasma were combined with 10 µL ACN (instead of working solution) and prepared as described above. The calibration and validation standards were freshly prepared before every run. Patient plasma samples were prepared as calibration and validation standards (no additional processing step necessary), except for adding 10 µL ACN instead of 10 µL working standard. Before sample preparation, the frozen plasma samples were thawed in absence of light at 4 °C.
Blood samples were collected over the entire dosing interval from patients treated with an oral anticancer drug as listed in Supplement Table S4. […] A maximum of two samples at two different time points throughout the entire dosing interval were collected per patient. Treatment duration before collection was at least five half-lives (depending on the specific oral anticancer drug). The samples were collected in K3-EDTA tubes.
A total of 71 blood samples from 39 patients treated with 14 different oral anticancer drugs were collected (see Supplement Table S4 for details). All patients were recruited from independent outpatient clinics associated with the Comprehensive Cancer Center of the University Hospital Erlangen (CCC Erlangen-EMN). Of 71 blood samples, 41 were taken ±4 h of trough level (cmin).

[4] = Freeze-thaw stability in spiked pooled human plasma; assay type: physicochemical
[5] = Short-term stability in spiked pooled human plasma (bench-top, 4 °C, 56 °C)
[6] = Autosampler stability of ready for injection samples; assay type: physicochemical, human
[7] = patient plasma, all samples, r.c. = respective cmin

## CNC(=O)c1ccccc1Sc1ccc2c(/C=C/c3ccccn3)n[nH]c2c1 [Axitinib]
[1]; validation standard 2xLLOV
  Long-term stability, 1 month, -20°C Accuracy [%]: 86.8%
  Long-term stability, 1 month, -80°C Accuracy [%]: 86.83%
  Long-term stability, 2 month, -20°C Accuracy [%]: 87.6%
  Long-term stability, 2 month, -80°C Accuracy [%]: 94.2%
  Long-term stability, 3 month, -20°C Accuracy [%]: 92.9%
  Long-term stability, 3 month, -80°C Accuracy [%]: 100.1%
  Long-term stability, 6 weeks, 4°C, without daylight Accuracy [%]: 66.5%
[1]; validation standard LLOV
  Long-term stability, 1 month, -20°C Accuracy [%]: 87.8%
  Long-term stability, 1 month, -80°C Accuracy [%]: 83.07%
  Long-term stability, 2 month, -20°C Accuracy [%]: 110.1%
  Long-term stability, 2 month, -80°C Accuracy [%]: 90.5%
  Long-term stability, 3 month, -20°C Accuracy [%]: 107.3%
  Long-term stability, 3 month, -80°C Accuracy [%]: 102.5%
  Long-term stability, 6 weeks, 4°C, without daylight Accuracy [%]: 49.2%
[1]; validation standard MOV
  Long-term stability, 1 month, -20°C Accuracy [%]: 89.8%
  Long-term stability, 1 month, -80°C Accuracy [%]: 87.50%
  Long-term stability, 2 month, -20°C Accuracy [%]: 87.7%
  Long-term stability, 2 month, -80°C Accuracy [%]: 92.2%
  Long-term stability, 3 month, -20°C Accuracy [%]: 95.9%
  Long-term stability, 3 month, -80°C Accuracy [%]: 90.5%
  Long-term stability, 6 weeks, 4°C, without daylight Accuracy [%]: 100.5%
[1]; validation standard ULOV
  Long-term stability, 1 month, -20°C Accuracy [%]: 92.0%
  Long-term stability, 1 month, -80°C Accuracy [%]: 87.13%
  Long-term stability, 2 month, -20°C Accuracy [%]: 88.8%
  Long-term stability, 2 month, -80°C Accuracy [%]: 91.3%
  Long-term stability, 3 month, -20°C Accuracy [%]: 86.8%
  Long-term stability, 3 month, -80°C Accuracy [%]: 91.9%
  Long-term stability, 6 weeks, 4°C, without daylight Accuracy [%]: 91.2%
[2]
  cmin: 5 ng/mL
[3]; 6 mg/day, 12 h, ±4 h of trough level: no
  Measured plasma concentration: 0.3 ng/mL
[3]; [7]
  Min–Max Concentration [% of r.c.]: 6.0 % of r.c.
[4]; validation standard 2xLLOV
  Freeze-Thaw Accuracy [%]: 108.3%
[4]; validation standard LLOV
  Freeze-Thaw Accuracy [%]: 102.1%
[4]; validation standard MOV
  Freeze-Thaw Accuracy [%]: 105.4%
[4]; validation standard ULOV
  Freeze-Thaw Accuracy [%]: 104.0%
[5]; acceptance limit <85%
  light sensitivity: no losses of concentrations below the acceptance limit
[5]; validation standard 2xLLOV
  Short-time stability (1h, 56°C) Accuracy [%]: 67.7%
  Short-time stability (24h, 4°C, without daylight) Accuracy [%]: 103.6%
  Short-time stability (24h, RT, with daylight) Accuracy [%]: 107.5%
  Short-time stability (24h, RT, without daylight) Accuracy [%]: 86.7%
[5]; validation standard LLOV
  Short-time stability (1h, 56°C) Accuracy [%]: 71.1%
  Short-time stability (24h, 4°C, without daylight) Accuracy [%]: 129.6%
  Short-time stability (24h, RT, with daylight) Accuracy [%]: 108.7%
  Short-time stability (24h, RT, without daylight) Accuracy [%]: 106.1%
[5]; validation standard MOV
  Short-time stability (1h, 56°C) Accuracy [%]: 54.6%
  Short-time stability (24h, 4°C, without daylight) Accuracy [%]: 100.6%
  Short-time stability (24h, RT, with daylight) Accuracy [%]: 116.9%
  Short-time stability (24h, RT, without daylight) Accuracy [%]: 99.3%
[5]; validation standard ULOV
  Short-time stability (1h, 56°C) Accuracy [%]: 46.2%
  Short-time stability (24h, 4°C, without daylight) Accuracy [%]: 97.2%
  Short-time stability (24h, RT, with daylight) Accuracy [%]: 123.3%
  Short-time stability (24h, RT, without daylight) Accuracy [%]: 101.6%
[6]; validation standard 2xLLOV
  Autosampler (24h, 4°C) Accuracy [%]: 101.2%
  Autosampler (72h, 4°C) Accuracy [%]: 104.9%
[6]; validation standard LLOV
  Autosampler (24h, 4°C) Accuracy [%]: 105.9%
  Autosampler (72h, 4°C) Accuracy [%]: 97.7%
[6]; validation standard MOV
  Autosampler (24h, 4°C) Accuracy [%]: 102.7%
  Autosampler (72h, 4°C) Accuracy [%]: 100.0%
[6]; validation standard ULOV
  Autosampler (24h, 4°C) Accuracy [%]: 100.4%
  Autosampler (72h, 4°C) Accuracy [%]: 99.1%

## CNC(=O)c1ccc(N2C(=S)N(c3ccc(C#N)c(C(F)(F)F)c3)C(=O)C2(C)C)cc1F [Enzalutamide]
[1]; validation standard 2xLLOV
  Long-term stability, 1 month, -20°C Accuracy [%]: 92.7%
  Long-term stability, 1 month, -80°C Accuracy [%]: 87.8%
  Long-term stability, 2 month, -20°C Accuracy [%]: 91.5%
  Long-term stability, 2 month, -80°C Accuracy [%]: 92.9%
  Long-term stability, 3 month, -20°C Accuracy [%]: 87.1%
  Long-term stability, 3 month, -80°C Accuracy [%]: 89.0%
  Long-term stability, 6 weeks, 4°C, without daylight Accuracy [%]: 96.8%
[1]; validation standard LLOV
  Long-term stability, 1 month, -20°C Accuracy [%]: 92.6%
  Long-term stability, 1 month, -80°C Accuracy [%]: 82.3%
  Long-term stability, 2 month, -20°C Accuracy [%]: 90.2%
  Long-term stability, 2 month, -80°C Accuracy [%]: 94.8%
  Long-term stability, 3 month, -20°C Accuracy [%]: 88.7%
  Long-term stability, 3 month, -80°C Accuracy [%]: 88.4%
  Long-term stability, 6 weeks, 4°C, without daylight Accuracy [%]: 97.2%
[1]; validation standard MOV
  Long-term stability, 1 month, -20°C Accuracy [%]: 90.3%
  Long-term stability, 1 month, -80°C Accuracy [%]: 90.6%
  Long-term stability, 2 month, -20°C Accuracy [%]: 92.8%
  Long-term stability, 2 month, -80°C Accuracy [%]: 95.7%
  Long-term stability, 3 month, -20°C Accuracy [%]: 91.6%
  Long-term stability, 3 month, -80°C Accuracy [%]: 90.6%
  Long-term stability, 6 weeks, 4°C, without daylight Accuracy [%]: 105.1%
[1]; validation standard ULOV
  Long-term stability, 1 month, -20°C Accuracy [%]: 85.8%
  Long-term stability, 1 month, -80°C Accuracy [%]: 86.1%
  Long-term stability, 2 month, -20°C Accuracy [%]: 90.8%
  Long-term stability, 2 month, -80°C Accuracy [%]: 90.3%
  Long-term stability, 3 month, -20°C Accuracy [%]: 87.7%
  Long-term stability, 3 month, -80°C Accuracy [%]: 87.3%
  Long-term stability, 6 weeks, 4°C, without daylight Accuracy [%]: 95.0%
[2]
  cmin: 11400 ng/mL
[3]; 160 mg/day, 24 h, ±4 h of trough level: yes
  Measured plasma concentration: 11296.4 ng/mL and 14087.2 ng/mL and 14395.8 ng/mL and 17580.7 ng/mL and 11074.7 ng/mL
[3]; [7]
  Median Concentration of All Samples [% of r.c.]: 120.1 % of r.c.
  Min–Max Concentration [% of r.c.]: 97.1–154.2 % of r.c.
[4]; validation standard 2xLLOV
  Freeze-Thaw Accuracy [%]: 97.8%
[4]; validation standard LLOV
  Freeze-Thaw Accuracy [%]: 87.6%
[4]; validation standard MOV
  Freeze-Thaw Accuracy [%]: 100.9%
[4]; validation standard ULOV
  Freeze-Thaw Accuracy [%]: 96.1%
[5]; validation standard 2xLLOV
  Short-time stability (1h, 56°C) Accuracy [%]: 59.4%
  Short-time stability (24h, 4°C, without daylight) Accuracy [%]: 103.3%
  Short-time stability (24h, RT, with daylight) Accuracy [%]: 106.1%
  Short-time stability (24h, RT, without daylight) Accuracy [%]: 108.3%
[5]; validation standard LLOV
  Short-time stability (1h, 56°C) Accuracy [%]: 50.0%
  Short-time stability (24h, 4°C, without daylight) Accuracy [%]: 102.0%
  Short-time stability (24h, RT, with daylight) Accuracy [%]: 100.4%
  Short-time stability (24h, RT, without daylight) Accuracy [%]: 103.0%
[5]; validation standard MOV
  Short-time stability (1h, 56°C) Accuracy [%]: 58.9%
  Short-time stability (24h, 4°C, without daylight) Accuracy [%]: 98.9%
  Short-time stability (24h, RT, with daylight) Accuracy [%]: 108.7%
  Short-time stability (24h, RT, without daylight) Accuracy [%]: 107.8%
[5]; validation standard ULOV
  Short-time stability (1h, 56°C) Accuracy [%]: 50.9%
  Short-time stability (24h, 4°C, without daylight) Accuracy [%]: 95.8%
  Short-time stability (24h, RT, with daylight) Accuracy [%]: 103.4%
  Short-time stability (24h, RT, without daylight) Accuracy [%]: 103.8%
[6]; validation standard 2xLLOV
  Autosampler (24h, 4°C) Accuracy [%]: 100.5%
  Autosampler (72h, 4°C) Accuracy [%]: 102.2%
[6]; validation standard LLOV
  Autosampler (24h, 4°C) Accuracy [%]: 89.9%
  Autosampler (72h, 4°C) Accuracy [%]: 91.3%
[6]; validation standard MOV
  Autosampler (24h, 4°C) Accuracy [%]: 108.0%
  Autosampler (72h, 4°C) Accuracy [%]: 105.7%
[6]; validation standard ULOV
  Autosampler (24h, 4°C) Accuracy [%]: 101.7%
  Autosampler (72h, 4°C) Accuracy [%]: 103.3%
